The source of these data is US12178878B2, “Amyloid peptide scaffolds coordinate with Alzheimer's disease drugs” (The University of Massachusetts, priority 2018, dated 2024).

Where two headings read alike, the source gives them in different places.

Assay [1] has as its system […] (SEQ ID NO: 4) amyloid peptide. Format: binding. The note with it: for AD compound captured, Wash 1 / AD compound captured, Wash 2 / AD compound captured, Wash 3: 150 μM inhibitor loaded; for AD compound captured, Wash 1: 1st pellet wash; for AD compound captured, Wash 2: 2nd pellet wash; for AD compound captured, Wash 3: 3rd pellet wash; for fraction of the 150 μM loaded drug incorporated into the peptide: UV-Vis, first wash. The method, then: Amyloid Peptide/Inhibitor Coordination Studies in Dilute Solutions. […]. As a negative control, 1 mL of 0.1 M PBS buffer was added. The mixtures were vortexed and sonicated to homogenously disperse any solid aggregates and stirred overnight to allow for coordination. The mixtures were transferred to 2 mL Eppendorf tubes and centrifuged for 15 mins at 4,400 rpm (14° C.) to pelletize the amyloid bound-inhibitors, and the supernatant was decanted. Subsequently, 1 mL of DI water was added to wash the pellet (followed by vortexing until obtaining a homogenous dispersion) in order to remove any unbound inhibitor. The samples were then centrifuged again at the same conditions so as to pelletize the amyloid materials, and the supernatant was decanted. Another 1 mL of DI water was then added into the pellet, the mixture was vortexed, and the physically bound inhibitor into the dilute amyloid peptide dispersions was quantified by UV-Vis between 200-600 nm and MS. This step is denoted as wash 1 in our study. Two additional pellet purification cycles were realized with replacement of the decanted volume each time with 1 mL of fresh DI water (denoted as wash 2 and wash 3 respectively). The inhibitor-containing peptides amyloids were normalized at 400 nm over the respective no inhibitor-containing amyloid peptides at the specific washing step, and the measured inhibitor peak values (at 315 nm and 323 nm) were subtracted from that of the amyloid peptide carriers at the same wavelength and concentration. The amount of inhibitors coordinated with the amyloid peptide carriers was quantified based on a calibration curve by both UV-Vis and MS.
. The peak at 315 nm was selected for inhibitor quantification due the absence of peaks at that range for both peptides. […]. However, the peak at 315 nm was selected for inhibitor quantification, and the following equation was used for both peptides: A315=A315 ([…]/Donepezil)−A315 ([…])
[…]. The peak at 323 nm was used for inhibitor quantification due the absence of peaks at that range for both peptides. […].

Assay [2] shares this test system. The assay is described as follows: Incubation of amyloid gel containing inhibitor in PBS at 37° C., drug retained. Format: binding. The note with it: YFTGAIIGNFY 5 mg/mL; for AD compound captured after incubation, Wash 2: 2nd pellet wash; for AD compound captured after incubation, Wash 3: 3rd pellet wash. The method, then: Incubation of Amyloid Gels-Containing Inhibitors in PBS at 37° C. […] (SEQ ID NO: 4) amyloid gels were prepared at 10 mg/mL (1 mL) and a 0.1 M PBS solution of Donepezil was added at 1000 μM (1 mL) and was left to stir overnight (the final peptide concentration was diluted to 5 mg/mL). A control of 1 mL 0.1 M PBS was also prepared. The complexed amyloid/inhibitor was sequentially centrifuged, and the same volume of water (2 mL) was added in the pellet to wash it (followed by vortexing until obtaining a complete dispersion) and remove the unbound inhibitor (wash 1). The sample was centrifuged, the pellet was isolated, and 2 mL of 0.1 M PBS was added, followed by overnight incubation under stirring at 37° C. The inhibitor-containing peptide was then pelletized, the supernatant was decanted, and the peptide/inhibitor dispersion was quantified after addition of 2 mL water (wash 2). A second washing step with 2 mL fresh water was subsequently realized and the pellet was quantified again (wash 3). Example 2: Coordination of the Designed Amyloid Peptides with AD drugs in Dilute Solution.

Setting [3] is: incubated at 37° C. in PBS for one day after wash 1, by MS.
Setting [4] is: incubated at 37° C. in PBS for one day after wash 1, by UV-Vis.

In the case of `Nc1c2c(nc3ccccc13)CCCC2` [tacrine], the “AD compound captured, Wash 1” value stood at 37 ± 2 µM in assay [1] ([…] 1 mg/mL, by MS); 26 µM in assay [1] ([…] 1 mg/mL, by UV-Vis); 26 ± 2 µM in assay [1] ([…] 1 mg/mL, by UV-Vis, listed as Tacrine). For the same compound, the “AD compound captured, Wash 2” value worked out at 2 ± 2 µM in assay [1] ([…] 1 mg/mL, by MS) and 14 ± 2 µM in assay [1] ([…] 1 mg/mL, by UV-Vis). Also, the “AD compound captured, Wash 3” value in assay [1] ([…] 1 mg/mL, by MS) worked out at 0 µM; in assay [1] ([…] 1 mg/mL, by UV-Vis) it was 3 ± 2 µM. In addition, the “fraction of the 150 μM loaded drug incorporated into the peptide” value in assay [1] ([…] 1 mg/mL) is “approximately ⅕”.

Consider `COc1cc2c(cc1OC)C(=O)C(CC1CCN(Cc3ccccc3)CC1)C2` (centres unmarked) [donepezil], for which, in assay [2] (setting [3]), the “AD compound captured after incubation, Wash 2” value worked out at 128 ± 12 µM and the “AD compound captured after incubation, Wash 3” value is 120 ± 18 µM. Further, in assay [2] (setting [4]), the “AD compound captured after incubation, Wash 2” value turned out to be 121 ± 25 µM and the “AD compound captured after incubation, Wash 3” value is 110 ± 31 µM. In assay [1] (YFTGAIIGNFY 1 mg/mL, by MS), the “AD compound captured, Wash 1” value turned out to be 43 ± 6 µM; the “AD compound captured, Wash 2” value stood at 32 ± 4 µM; the “AD compound captured, Wash 3” value is 21 ± 9 µM. In addition, in assay [1] (YFTGAIIGNFY 1 mg/mL, by UV-Vis), the “AD compound captured, Wash 1” value stood at 38 µM; the “AD compound captured, Wash 2” value turned out to be 24 ± 4 µM; the “AD compound captured, Wash 3” value was 5 ± 4 µM. The “AD compound captured, Wash 1” value in assay [1] (YFTGAIIGNFY 1 mg/mL, by UV-Vis, listed as Donepezil) was determined as 38 ± 4 µM. In addition, the “fraction of the 150 μM loaded drug incorporated into the peptide” value in assay [1] (YFTGAIIGNFY 1 mg/mL) is reported as “approximately ¼”.
